These compounds were tested against T1, Syk (Homo sapiens, UniProt P43405) (assay: Syk HTRF assay). Conditions: IC50 activity level, read-out: Activity Level.
T1 construct: purchased Carna Biosciences
Type: biochemical
In short: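 Read-out is the 665 nm/615 nm time-resolved fluorescence ratio after EDTA stop and Eu-anti-phosphotyrosine plus streptavidin-DyLight 647 detection. Reaction ran 1 h at room temperature with start mix of 87.5 μM ATP and 80 nM substrate peptide in pH 7.6 HEPES/MgCl2 buffer.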

`CNC(=O)c1ccc(Nc2nc3cccc(-c4ccc5[nH]ncc5c4)n3n2)cc1` [Example 426, 4-(5-(1H-indazol-5-yl)-[1,2,4]triazolo[1,5-a]pyridin-2-ylamino)-N-methylbenzamide] and `NC(=O)c1nc2ccc(-c3cccc4nc(Nc5ccc(C(F)(F)F)cc5)nn34)cc2[nH]1` [Example 408, 6-(2-(4-(trifluoromethyl)phenylamino)-[1,2,4]triazolo[1,5-a]pyridin-5-yl)-1H-benzo[d]imidazole-2-carboxamide] fall in the same range of IC50: 0.005 to 250 nM for the first, 0.005 to 250 nM for the second.

First: c1ccc(Nc2nc3cccc(-c4cccnc4)n3n2)cc1 [Example 524, N-phenyl-5-(pyridin-3-yl)-[1,2,4]triazolo[1,5-a]pyridin-2-amine]
Second: OC(c1cccnc1)c1cccc2nc(Nc3ccccc3)nn12 (stereo not shown) [Example 501, (2-(phenylamino)-[1,2,4]triazolo[1,5-a]pyridin-5-yl)(pyridin-3-yl)methanol]
The IC50 of the first is higher: 1000 to 10000 nM for the first, 250 to 500 nM for the second. The second is the more potent here.

`CN(c1cccc2nc(Nc3ccc4c(cnn4C)c3)nn12)C1CCOCC1` [Example 542, N^5-methyl-N^2-(1-methyl-1H-indazol-5-yl)-N^5-(tetrahydro-2H-pyran-4-yl)-[1,2,4]triazolo[1,5-a]pyridine-2,5-diamine] and `Cn1ncc2ccc(Nc3nc4cccc(N[C@H]5CCCNC5)n4n3)cc21` [Example 466, (S)-N^2-(1-methyl-1H-indazol-6-yl)-N^5-(piperidin-3-yl)-[1,2,4]triazolo[1,5-a]pyridine-2,5-diamine] fall in the same range of IC50: 0.005 to 250 nM for the first, 0.005 to 250 nM for the second.

Compared with `CC1(C)C(=O)Nc2cc(Nc3nc4cccc(N5CCOCC5)n4n3)ccc21` [Example 571, 3,3-dimethyl-6-(5-morpholino-[1,2,4]triazolo[1,5-a]pyridin-2-ylamino)indolin-2-one], `c1cc(NC2CCCNC2)n2nc(Nc3ccc4c(c3)CNC4)nc2c1` (stereo in doubt) [Example 448, (R)-N^2-(isoindolin-5-yl)-N^5-(piperidin-3-yl)-[1,2,4]triazolo[1,5-a]pyridin-2,5-diamine] is higher in IC50: 0.005 to 250 nM for the first, 1000 to 10000 nM for the second. The first is the more potent here.

First: c1ccc(Nc2nc3cccc(-c4ccc5nc(CN6CCCC6)[nH]c5c4)n3n2)cc1 [Example 428, N-phenyl-5-(2-(pyrrolidin-1-ylmethyl)-1H-benzo[d]imidazol-6-yl)-[1,2,4]triazolo[1,5-a]pyridin-2-amine]
Second: OC(c1cccc2nc(Nc3ccccc3)nn12)C1CCN(Cc2ccccc2)CC1 (stereo not shown) [Example 491, (1-benzylpiperidin-4-yl)(2-(phenylamino)-[1,2,4]triazolo[1,5-a]pyridin-5-yl)methanol]
The IC50 of the first is lower: 0.005 to 250 nM for the first, 1000 to 10000 nM for the second. The first is the more potent here.

First: c1ccc(Nc2nc3cccc(C4CCCCC4)n3n2)cc1 [Example 525, 5-cyclohexyl-N-phenyl-[1,2,4]triazolo[1,5-a]pyridin-2-amine]
Second: Cc1cc(Nc2nc3cccc(CC4CCOCC4)n3n2)cc2[nH]nc(C)c12 [Example 548, N-(3,4-dimethyl-1H-indazol-6-yl)-5-((tetrahydro-2H-pyran-4-yl)methyl)-[1,2,4]triazolo[1,5-a]pyridin-2-amine]
The IC50 of the first is higher: 1000 to 10000 nM for the first, 0.005 to 250 nM for the second. The second is the more potent here.

Same assay, conditions: activity levels A-D, read-out: Activity Level (IC50 in the Syk HTRF assay)

First: CNC(=O)c1ccc(Nc2nc3cccc(N4CCC(O)CC4)n3n2)cc1 [Example 242, 4-(5-(4-hydroxypiperidin-1-yl)-[1,2,4]triazolo[1,5-a]pyridin-2-ylamino)-N-methylbenzamide]
Second: CNC(=O)c1ccc(Nc2nc3cccc(N4CCC(O)C4)n3n2)cc1 (stereo in doubt) [Example 250, (R)-4-(5-(3-hydroxypyrrolidin-1-yl)-[1,2,4]triazolo[1,5-a]pyridin-2-ylamino)-N-methylbenzamide]
The IC50 of the first is higher: 1000 to 10000 nM for the first, 500 to 1000 nM for the second. The second is the more potent here.

First: CNC(=O)c1ccc(Nc2nc3cccc(N4CCCC4)n3n2)cc1 [Example 251, N-methyl-4-(5-(pyrrolidin-1-yl)-[1,2,4]triazolo[1,5-a]pyridin-2-ylamino)benzamide]
Second: O[C@H]1CCCN(Cc2cccc3nc(Nc4ccc(C(F)(F)F)cc4)nn23)C1 [Example 300, (S)-1-((2-(4-(trifluoromethyl)phenylamino)-[1,2,4]triazolo[1,5-a]pyridin-5-yl)methyl)piperidin-3-ol]
The IC50 of the first is lower: 250 to 500 nM for the first, 1000 to 10000 nM for the second. The first is the more potent here.

First: COCCOc1cc(Nc2nc3cccc(N[C@H]4CC[C@@H](O)CC4)n3n2)ccc1F [Example 210, cis-4-(2-(4-fluoro-3-(2-methoxyethoxy)phenylamino)-[1,2,4]triazolo[1,5-a]pyridin-5-ylamino)cyclohexanol]
Second: O=C1NCCC1NCc1cccc2nc(Nc3ccc(C(F)(F)F)cc3)nn12 (racemic) [Example 207, (±)-3-((2-(4-(trifluoromethyl)phenylamino)-[1,2,4]triazolo[1,5-a]pyridin-5-yl)methylamino)pyrrolidin-2-one]
The IC50 of the first is lower: 0.005 to 250 nM for the first, 1000 to 10000 nM for the second.

Same assay, conditions: read-out: Activity Level (Syk HTRF assay IC50)

First: CNC(=O)c1ccc(Nc2nc3cccc(-c4ccc(-c5c[nH]cn5)cc4)n3n2)cc1 [compound 9, 4-(5-(4-(1H-imidazol-4-yl)phenyl)-[1,2,4]triazolo[1,5-a]pyridin-2-ylamino)-N-methylbenzamide]
Second: CNC(=O)c1ccc(Nc2nc3cccc(-c4cccc(C(=O)O)c4)n3n2)cc1 [compound 30, 3-(2-(4-(methylcarbamoyl)phenylamino)-[1,2,4]triazolo[1,5-a]pyridin-5-yl)benzoic acid]
The IC50 of the first is lower: 0.005 to 250 nM for the first, 1000 to 10000 nM for the second.

`Cc1n[nH]c2cc(Nc3nc4cccc(NC[C@H]5CCC(O)C5)n4n3)ccc12` (stereo in doubt) [Example 180, (1R,3S)-3-((2-(3-methyl-1H-indazol-6-ylamino)-[1,2,4]triazolo[1,5-a]pyridin-5-ylamino)methyl)cyclopentanol] and `Cc1n[nH]c2cc(Nc3nc4cccc(N(C)CCO)n4n3)ccc12` [Example 190, 2-(methyl(2-(3-methyl-1H-indazol-6-ylamino)-[1,2,4]triazolo[1,5-a]pyridin-5-yl)amino)ethanol] fall in the same range of IC50: 0.005 to 250 nM for the first, 0.005 to 250 nM for the second.

`c1ccc(-c2cccc3nc(Nc4cncnc4)nn23)cc1` [compound 74, 5-phenyl-N-(pyrimidin-5-yl)-[1,2,4]triazolo[1,5-a]pyridin-2-amine] and `NC(=O)c1ccc(Nc2nc3cccc(-c4ccccc4)n3n2)cn1` [compound 72, 5-(5-phenyl-[1,2,4]triazolo[1,5-a]pyridin-2-ylamino)picolinamide] fall in the same range of IC50: 1000 to 10000 nM for the first, 1000 to 10000 nM for the second.

Compared with `COC[C@]1(O)CC[C@@H](Cc2cccc3nc(Nc4ccc(C(F)(F)F)cc4)nn23)CC1` [Example 187, cis-1-(methoxymethyl)-4-((2-(4-(trifluoromethyl)phenylamino)-[1,2,4]triazolo[1,5-a]pyridin-5-yl)methyl)cyclohexanol], `CC1(C)C(=O)Nc2cc(Nc3nc4cccc(CC5CCNCC5)n4n3)ccc21` [Example 138, 3,3-dimethyl-6-(5-(piperidin-4-ylmethyl)-[1,2,4]triazolo[1,5-a]pyridin-2-ylamino)indolin-2-one] is lower in IC50: 500 to 1000 nM for the first, 0.005 to 250 nM for the second. The second is the more potent here.

Compared with `c1ccc(-c2cccc3nc(Nc4ccc5cnoc5c4)nn23)cc1` [compound 48, N-(5-phenyl-[1,2,4]triazolo[1,5-a]pyridin-2-yl)benzo[d]isoxazol-6-amine], `Cc1cc(Nc2nc3cccc(N[C@H]4CC[C@@H](O)CC4)n3n2)cc2c1C(C)(C)C(=O)N2` [compound 109, cis-6-(5-(4-hydroxycyclohexylamino)-[1,2,4]triazolo[1,5-a]pyridin-2-ylamino)-3,3,4-trimethylindolin-2-one] is lower in IC50: 1000 to 10000 nM for the first, 0.005 to 250 nM for the second.

Reference: US8299056B2 (Signal Pharmaceuticals, LLC, priority 2008, dated 2012)
